Assay results as given in patent US20100022483A1, “Substituted Tetracycline Compounds” (Paratek Pharmaceuticals, Inc., priority 2008, published 2010).
In brackets after ≈: the same amount, converted by molar mass. Like-named read-outs stand apart in the source and are kept apart here.

Experiments:
gram positive bacteria = experiment: In vitro anti-bacterial activity assay (broth dilution MIC), gram positive bacteria; type: cell-based, S. aureus; settings: 18 h
From the text: (§1) Bacterial infections may be caused by a wide variety of gram positive and gram negative bacteria. Some of the compounds of the invention are useful as antibiotics against organisms which are resistant and/or sensitive to other tetracycline compounds. The antibiotic activity of the tetracycline compounds of the invention may by using the in vitro standard broth dilution method described in Waitz, J. A., CLSI, Document M7-A2, vol. 10, no. 8, pp. 13-20, 2nd edition, Villanova, Pa. (1990).
(§2) The following assay was used to determine the efficacy of the tetracycline compounds against gram positive and gram negative bacteria. 2 mg of each compound was dissolved in 100 μl of DMSO. […] The tetracycline compound solutions were diluted to 50 μL volumes, with a test compound concentration of 0.098 μg/ml. Optical density (OD) determinations were made from fresh log-phase broth cultures of the test strains. Dilutions were made to achieve a final cell density of […] CFU/ml. At OD=1, cell densities for different genera were approximately:
(§3) 50 μl of the cell suspensions were added to each well of microtiter plates. The final cell density was approximately 5×10^5 CFU/ml. These plates were incubated at 35° C. in an ambient air incubator for approximately 18 hours. The plates were read with a microplate reader and were visually inspected when necessary. The MIC was defined as the lowest concentration of the tetracycline compound that inhibits growth. Table 3 includes MIC data for several substituted tetracycline compounds.

gram negative bacteria = experiment: In vitro anti-bacterial activity assay (broth dilution MIC), gram negative bacteria; type: cell-based, E. coli
From the text: as §1, §2, §3

[1] = Mammalian cytotoxicity assay (resazurin), COS-1 cells; type: cell-based; settings: African green monkey, read-out: Cytotox. COS-1
Procedure: (§4) COS-1 and CHO-K1 cell suspensions were prepared, seeded into 96-well tissue culture treated black-walled microtiter plates (density determined by cell line), and incubated overnight at 37° C., in 5% CO2 and approximately 95% humidity. The following day, serial dilutions of compound were prepared under sterile conditions and transferred to cell plates. Cell/Compound plates were incubated under the above conditions for 24 hours. Following the incubation period, media/compound was aspirated and 50 μl of resazurin (0.042 mg/ml in PBS w/Ca and Mg) is added. The plates were then incubated under the above conditions for 2 hours and then placed in the dark at room temperature for an additional 30 minutes. Fluorescence measurements were taken (excitation 535 nm, emission 590 nm). The IC50 (concentration of compound causing 50% growth inhibition) was then calculated. Table 3 includes IC50 data for several substituted tetracycline compounds.

in vitro = type: cell-based; settings: Chinese hamster, Cytotox. CHO-K1
Procedure: as §4

3T3 fibroblast cells = experiment: In vitro phototoxicity assay (neutral red; UV light-treated vs dark control plates); type: cell-based; settings: for Photo Toxicity UV Tox50: UV light 50 minutes; for Photo Toxicity Dark Tox50: dark control plate
Procedure: 3T3 fibroblast cells were harvested and plated at a concentration of 1×10^5 cells/mL and the plates were incubated overnight at 37° C., in 5% CO2 and approximately 95% humidity. On the following day the medium was removed from the plates and replaced with Hanks' Balanced Salt Solution (HBSS). Compound dilutions were made in HBSS and added to the plates. For each compound tested, a duplicate plate was prepared that was not exposed to light as a control for compound toxicity. Plates were then incubated in a dark drawer (for controls), or under UV light (meter reading of 1.6-1.8 mW/cm^2) for 50 minutes. Cells were then washed with HBSS, fresh medium was added, and plates were incubated overnight as described above. The following day neutral red was added as an indicator of cell viability. The plates were then incubated for an additional 3 hours. Cells were then washed with HBSS and blotted on absorbent paper to remove excess liquid. A solution of 50% EtOH, 10% glacial acetic acid was added and after 20 minutes incubation the plate's absorbance at 535 nm was read using a Wallac Victor 5 spectrophotometer. The phototoxicity reflected the difference between the light-treated and control cultures. Table 3 includes phototoxicity (μM) data for several substituted tetracycline compounds.

[2] = Staphylococcus aureus, S. aureus MRSA5, read-out: Median MIC's G+ S. aureus MRSA5
[3] = Staphylococcus aureus, S. aureus RN450, read-out: Median MIC's G+ S. aureus RN450
[4] = Streptococcus pneumoniae, S. pneumoniae 157E-Strep, read-out: Median MIC's G+ S. pneumoniae 157E-Strep
[5] = Escherichia coli, 18 h, E. coli D1 209, read-out: Median MIC's G− E. coli D1 209
[6] = Escherichia coli, 18 h, E. coli MG 1655, read-out: Median MIC's G− E. coli MG 1655
[7] = Escherichia coli, ATCC25922, 18 h, E. coli ATCC 25922, read-out: Median MIC's G− E. coli ATCC 25922
[8] = Pseudomonas aeruginosa, 18 h, P. aeruginosa K201 PAO6609, read-out: Median MIC's G− P. aeruginosa K201 PAO6609

Row | SMILES | MIC (gram positive bacteria; [2]) | MIC (gram positive bacteria; [3]) | MIC (gram positive bacteria; [4]) | MIC (gram negative bacteria; [5]) | IC50 at 24 h [1] | IC50 at 24 h (in vitro) | Photo Toxicity UV Tox50 (3T3 fibroblast cells) | Photo Toxicity Dark Tox50 (3T3 fibroblast cells) | MIC (gram negative bacteria; [6]) | MIC (gram negative bacteria; [7]) | MIC (gram negative bacteria; [8]) | MIC (gram negative bacteria; Escherichia coli, 18 h, read-out: Median MIC's G− E. coli D1 209, E. coli D1 209)
1 | COc1ccc(CNCc2ccc(-c3ccc(O)c4c3C[C@H]3C[C@H]5[C@H](N(C)C)C(O)=C(C(N)=O)C(=O)[C@@]5(O)C(O)=C3C4=O)cc2)cc1 (stereo in doubt) [AW] | 1 µg/mL (≈ 1.56 µM) | 0.06 µg/mL (≈ 0.0938 µM) | 0.06 µg/mL (≈ 0.0938 µM) | 1 µg/mL (≈ 1.56 µM) | < 1.97 µM | 13.5 µM |  |  |  |  |  | 
2 | CO/N=C/c1ccc(-c2ccc(O)c3c2C[C@H]2C[C@H]4[C@H](N(C)C)C(O)=C(C(N)=O)C(=O)[C@@]4(O)C(O)=C2C3=O)o1 (stereo in doubt) [AZ] | 1 µg/mL (≈ 1.86 µM) | 0.13 µg/mL (≈ 0.242 µM) | 0.06 µg/mL (≈ 0.112 µM) | 64 µg/mL (≈ 119 µM) | < 2.44 µM | 3.04 µM | >156.79 µM | >156.79 µM |  |  |  | 
3 | CN(C)[C@H]1C(O)=C(C(N)=O)C(=O)[C@@]2(O)C(O)=C3C(=O)c4c(O)ccc(-c5cccc(C(N)=O)c5)c4C[C@H]3C[C@@H]12 (stereo in doubt) [B] | 64 µg/mL (≈ 120 µM) | 2 µg/mL (≈ 3.75 µM) | 2 µg/mL (≈ 3.75 µM) | 64 µg/mL (≈ 120 µM) | > 15.7 µM | > 15.7 µM | >156.64 µM | >156.64 µM | 64 µg/mL (≈ 120 µM) | 64 µg/mL (≈ 120 µM) | 64 µg/mL (≈ 120 µM) | 
4 | CN(C)CCNC(=O)c1cccc(-c2ccc(O)c3c2C[C@H]2C[C@H]4[C@H](N(C)C)C(O)=C(C(N)=O)C(=O)[C@@]4(O)C(O)=C2C3=O)c1 [AB] | 32 µg/mL (≈ 52.9 µM) | 0.5 µg/mL (≈ 0.827 µM) | 0.25 µg/mL (≈ 0.413 µM) | 64 µg/mL (≈ 106 µM) | > 200 µM | > 200 µM | >200 µM | >200 µM | 16 µg/mL (≈ 26.5 µM) | 32 µg/mL (≈ 52.9 µM) | 64 µg/mL (≈ 106 µM) | 
5 | CN(C)C(=O)c1cccc(-c2ccc(O)c3c2C[C@H]2C[C@H]4[C@H](N(C)C)C(O)=C(C(N)=O)C(=O)[C@@]4(O)C(O)=C2C3=O)c1 [AC] | 16 µg/mL (≈ 28.5 µM) | 0.25 µg/mL (≈ 0.445 µM) |  | 64 µg/mL (≈ 114 µM) | > 37.6 µM | > 9.4 µM |  |  |  |  |  | 
6 | CN(C)CCNC(=O)c1ccc(-c2ccc(O)c3c2C[C@H]2C[C@H]4[C@H](N(C)C)C(O)=C(C(N)=O)C(=O)[C@@]4(O)C(O)=C2C3=O)cc1 [AD] | 16 µg/mL (≈ 26.5 µM) | 0.25 µg/mL (≈ 0.413 µM) | 0.13 µg/mL (≈ 0.215 µM) | 64 µg/mL (≈ 106 µM) | > 43.5 µM | > 43.5 µM | 135.17 µM | >140.2 µM | 8 µg/mL (≈ 13.2 µM) | 16 µg/mL (≈ 26.5 µM) | 64 µg/mL (≈ 106 µM) | 
7 | CN(C)[C@@H]1C(O)=C(C(N)=O)C(=O)[C@@]2(O)C(O)=C3C(=O)c4c(O)ccc(-c5cccc(C(N)=O)c5)c4C[C@H]3C[C@@H]12 [AE] | 4 µg/mL (≈ 7.5 µM) | 0.06 µg/mL (≈ 0.112 µM) | 0.06 µg/mL (≈ 0.112 µM) | 64 µg/mL (≈ 120 µM) | > 15.7 µM | > 15.7 µM | >156.64 µM | >156.64 µM | 4 µg/mL (≈ 7.5 µM) | 4 µg/mL (≈ 7.5 µM) | 64 µg/mL (≈ 120 µM) | 
8 | CN(C)[C@@H]1C(O)=C(C(N)=O)C(=O)[C@@]2(O)C(O)=C3C(=O)c4c(O)ccc(-c5ccccc5)c4C[C@H]3C[C@@H]12 [AQ] | 0.25 µg/mL (≈ 0.51 µM) | 0.06 µg/mL (≈ 0.122 µM) | 0.06 µg/mL (≈ 0.122 µM) | 8 µg/mL (≈ 16.3 µM) | 6.06 µM | 6.91 µM |  |  |  |  |  | 
9 | COC(=O)c1ccc(-c2ccc(O)c3c2C[C@H]2C[C@H]4[C@H](N(C)C)C(O)=C(C(N)=O)C(=O)[C@@]4(O)C(O)=C2C3=O)cc1 [AR] | 0.315 µg/mL (≈ 0.574 µM) | 0.06 µg/mL (≈ 0.109 µM) | 0.25 µg/mL (≈ 0.456 µM) |  | 4.8 µM | < 2.53 µM |  |  |  |  |  | 64 µg/mL (≈ 117 µM)
10 | CC(=O)c1cccc(-c2ccc(O)c3c2C[C@H]2C[C@H]4[C@H](N(C)C)C(O)=C(C(N)=O)C(=O)[C@@]4(O)C(O)=C2C3=O)c1 [AS] | 0.5 µg/mL (≈ 0.939 µM) | 0.06 µg/mL (≈ 0.113 µM) | 0.06 µg/mL (≈ 0.113 µM) | 64 µg/mL (≈ 120 µM) |  |  |  |  |  |  |  | 
11 | CC(C)OC(=O)c1cccc(-c2ccc(O)c3c2C[C@H]2C[C@H]4[C@H](N(C)C)C(O)=C(C(N)=O)C(=O)[C@@]4(O)C(O)=C2C3=O)c1 [AU] | 1 µg/mL (≈ 1.73 µM) | 0.25 µg/mL (≈ 0.434 µM) | 0.5 µg/mL (≈ 0.867 µM) | 64 µg/mL (≈ 111 µM) | 4.56 µM | 6.12 µM |  |  |  |  |  | 
12 | CN(C)[C@@H]1C(O)=C(C(N)=O)C(=O)[C@@]2(O)C(O)=C3C(=O)c4c(O)ccc(-c5ccc(CN6CCOCC6)o5)c4C[C@H]3C[C@@H]12 [AX] | 4 µg/mL (≈ 6.9 µM) | 0.06 µg/mL (≈ 0.104 µM) | 0.06 µg/mL (≈ 0.104 µM) | 8 µg/mL (≈ 13.8 µM) | 27.1 µM | > 32.6 µM |  |  |  |  |  | 
13 | CN1CCN(Cc2ccc(-c3ccc(O)c4c3C[C@H]3C[C@H]5[C@@H](N(C)C)C(O)=C(C(N)=O)C(=O)[C@@]5(O)C(O)=C3C4=O)o2)CC1 [AY] | 32 µg/mL (≈ 54 µM) | 0.5 µg/mL (≈ 0.844 µM) | 0.25 µg/mL (≈ 0.422 µM) | 64 µg/mL (≈ 108 µM) | > 32 µM | > 32 µM |  |  |  |  |  | 
14 | CN(C)c1cc(-c2ccc(CN3CCN(CCO)CC3)o2)c(O)c2c1C[C@H]1C[C@H]3[C@H](N(C)C)C(O)=C(C(N)=O)C(=O)[C@@]3(O)C(O)=C1C2=O [BA] | 64 µg/mL (≈ 96.1 µM) | 1 µg/mL (≈ 1.5 µM) | 2 µg/mL (≈ 3 µM) | 64 µg/mL (≈ 96.1 µM) | > 111 µM | > 111 µM |  |  |  |  |  | 
15 | COCc1cccc(-c2ccc(O)c3c2C[C@H]2C[C@H]4[C@H](N(C)C)C(O)=C(C(N)=O)C(=O)[C@@]4(O)C(O)=C2C3=O)c1 [DB] | 0.5 µg/mL (≈ 0.935 µM) | 0.06 µg/mL (≈ 0.112 µM) | 0.06 µg/mL (≈ 0.112 µM) | 64 µg/mL (≈ 120 µM) | 10.4 µM | 13.2 µM |  |  |  |  |  | 
